Structures are written as SMILES.

T1 sequence (Q06187 whole entry): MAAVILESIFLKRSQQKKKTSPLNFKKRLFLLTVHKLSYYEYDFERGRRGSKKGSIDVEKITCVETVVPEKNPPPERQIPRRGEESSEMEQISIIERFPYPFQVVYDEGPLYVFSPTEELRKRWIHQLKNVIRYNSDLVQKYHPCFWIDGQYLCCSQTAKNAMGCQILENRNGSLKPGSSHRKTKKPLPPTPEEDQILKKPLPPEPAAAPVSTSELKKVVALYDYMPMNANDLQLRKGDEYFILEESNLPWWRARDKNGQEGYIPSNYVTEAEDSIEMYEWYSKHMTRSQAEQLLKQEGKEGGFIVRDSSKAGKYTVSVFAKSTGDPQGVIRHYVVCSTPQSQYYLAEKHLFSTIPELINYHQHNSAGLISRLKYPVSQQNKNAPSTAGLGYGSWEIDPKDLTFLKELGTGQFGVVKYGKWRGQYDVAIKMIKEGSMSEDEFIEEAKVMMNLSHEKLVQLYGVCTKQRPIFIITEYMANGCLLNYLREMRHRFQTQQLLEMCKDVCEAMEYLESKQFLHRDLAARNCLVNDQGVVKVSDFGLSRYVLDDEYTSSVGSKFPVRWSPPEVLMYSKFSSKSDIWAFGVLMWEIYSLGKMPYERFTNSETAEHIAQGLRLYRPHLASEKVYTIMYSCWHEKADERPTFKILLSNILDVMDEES

This test concerns the target T1, BTK (Homo sapiens, UniProt Q06187).
T1 construct: purified from insect cells as a full-length construct containing a N-terminal 6×-His tag; His6 (N); made in house; host or cells: insect cells (baculovirus, Sf21)
Kind of test: Btk in vitro inhibitory activity / inhibition of a panel of kinases (TR-FRET, mobility shift or radiometric filter binding). Format: biochemical. To be noted: kinase assay by one of methods A, B or C. The protocol:
Btk kinase activity is determined using a time-resolved fluorescence resonance energy transfer (TR-FRET) methodology. Measurements are performed in a reaction volume of 50 μL using 96-well assay plates. Kinase enzyme, inhibitor, ATP (at the Km for the kinase), and 1 μM peptide substrate (Biotin-AVLESEEELYSSARQ-NH2) are incubated in a reaction buffer composed of 20 mM Tris, 50 mM NaCl, MgCl2 (5-25 mM depending on the kinase), MnCl2 (0-10 mM), 1 mM DTT, 0.1 mM EDTA, 0.01% bovine serum albumin, 0.005% Tween-20, and 10% DMSO at pH 7.4 for one hour. The reaction is quenched by the addition of 1.2 equivalents of EDTA (relative to divalent cation) in 25 μL of 1× Lance buffer (Perkin-Elmer). Streptavidin-APC (Perkin-Elmer) and Eu-labeled p-Tyr100 antibody (Perkin-Elmer) in 1× Lance buffer are added in a 25 μL volume to give final concentrations of 100 nM and 2.5 nM, respectively, and the mixture is allowed to incubate for one hour. The TR-FRET signal is measured on a multimode plate reader with an excitation wavelength (λEx) of 330 nm and detection wavelengths (λEm) of 615 and 665 nm. Activity is determined by the ratio of the fluorescence at 665 nm to that at 615 nm. For each compound, enzyme activity is measured at various concentrations of compound. Negative control reactions are performed in the absence of inhibitor in replicates of six, and two no-enzyme controls are used to determine baseline fluorescence levels. Inhibition constants, Ki(app), ware obtained using the program BatchKi (Kuzmic et al. (2000), Anal. Biochem. 286:45-50). IC50s are obtained according to the equation: IC50={Ki(app)/(1+[ATP]/Km^ATP)}+[E]total/2;
For all kinases, [ATP]=Km^ATP, [Btk]total=0.5 nM and [Lck]total=6 nM.
Kinase activity is measured in vitro using electrophoretic mobility shift assay. The kinase reactions are assembled in a total volume of 25 μL in 384 well plates. The reactions comprise: BTK enzyme (1 nM, N-terminal His6-tagged, recombinant, full-length, human BTK purified from baculovirus Sf21 insect cell system), inhibitor, ATP ([…] the apparent Km for the kinase), fluorescently labeled peptide substrate (1 μM, FAM-GEEPLYWSFPAKKK-NH2) in a reaction buffer composed of 100 mM HEPES, pH7.5, 5 mM MgCl2 1 mM DTT, 0.1% bovine serum albumin, 0.01% Triton X-100, and 1% DMSO. The reaction is incubated for one hour and is quenched by the addition of 45 μL of termination buffer (100 mM HEPES, pH7.5, 0.01% Triton X-100, 30 mM EDTA). The terminated reactions are analyzed using 12 channel LabChip® 3000 microfluidic detection instrument (Caliper Life Sciences). The enzymatic phosphorylation of the peptide results in a change in net charge, enabling electrophoretic separation of product from substrate peptide. As substrate and product peptides are separated, two peaks of fluorescence are observed. Change in the relative fluorescence intensity of the substrate and product peaks is the parameter measured, reflecting enzyme activity. In the presence of an inhibitor, the ratio between product and substrate is altered: the signal of the product decreases, while the signal of the substrate increases.
Activity in each sample is determined as the product to sum ratio (PSR):P/(S+P), where P is the peak height of the product peptide and S is the peak height of the substrate peptide. For each compound, enzyme activity is measured at various concentrations (12 concentrations of compound spaced by 3× dilution intervals). Negative control samples (0%-inhibition in the absence of inhibitor) and positive control samples (100%-inhibition, in the presence of 20 mM EDTA) are assembled in replicates of four and are used to calculate %-inhibition values for each inhibitor at each concentration. Percent inhibition (Pinh) is determined using following equation: […]
On the technique in general: In TR-FRET formats the signal depends on donor and acceptor labels being close together.
By IC50 is commonly meant the point on the concentration scale where inhibition reaches its midpoint. Regarding `CN(C(=O)/C=C/CN(C)C1CC1)c1ccc(-n2c(Cl)c(-c3ccc(Cl)cc3)c3c(N)ncnc32)cc1` [Compound 31, (E)-N-(4-(4-amino-6-chloro-5-(4-chlorophenyl)-7H-pyrrolo[2,3-d]pyrimidin-7-yl)phenyl)-4-(cyclopropyl(methyl)amino)-N-methylbut-2-enamide], the IC50 was less than 100 nM. With `Cc1c(-c2ccc(Cl)cc2)c2c(N)ncnc2n1-c1cccc(N(C)C(=O)/C=C/CN(C)C2CC2)c1` [Compound 48, (E)-N-(3-(4-amino-5-(4-chlorophenyl)-6-methyl-7H-pyrrolo[2,3-d]pyrimidin-7-yl)phenyl)-4-(cyclopropyl(methyl)amino)-N-methylbut-2-enamide], the IC50 was less than 100 nM. Then `COCCN(C)C/C=C/C(=O)N1CC[C@@H](n2c(F)c(-c3ccc(Oc4ccccc4)cc3)c3c(N)ncnc32)C1` [Compound 49, (R,E)-1-(3-(4-amino-6-fluoro-5-(4-phenoxyphenyl)-7H-pyrrolo[2,3-d]pyrimidin-7-yl)pyrrolidin-1-yl)-4-((2-methoxyethyl)(methyl)amino)but-2-en-1-one], with less than 100 nM; and `Cc1c(-c2ccc(Oc3cccc(F)c3)cc2)c2c(N)ncnc2n1[C@@H]1CCN(C(=O)/C=C/CN(C)C2CC2)C1` [Compound 53, (R,E)-1-(3-(4-amino-5-(4-(3-fluorophenoxyl)phenyl)-6-methyl-7H-pyrrolo[2,3-d]pyrimidin-7-yl)pyrrolidin-1-yl)-4-(cyclopropyl(methyl)amino)but-2-en-1-one], with less than 100 nM. Then `COCCN(C)C/C=C/C(=O)N1CC[C@@H](n2c(Cl)c(-c3ccc(Oc4ccccc4)cc3)c3c(N)ncnc32)C1` [Compound 55, (R,E)-1-(3-(4-amino-6-chloro-5-(4-phenoxyphenyl)-7H-pyrrolo[2,3-d]pyrimidin-7-yl)pyrrolidin-1-yl)-4-((2-methoxyethyl)(methyl)amino)but-2-en-1-one], with less than 100 nM; and `CN(C/C=C/C(=O)N1CC[C@@H](n2c(Cl)c(-c3ccc(Oc4ccccc4)cc3)c3c(N)ncnc32)C1)[C@H]1CCOC1` [Compound 56, (E)-1-((R)-3-(4-amino-6-chloro-5-(4-phenoxyphenyl)-7H-pyrrolo[2,3-d]pyrimidin-7-yl)pyrrolidin-1-yl)-4-(methyl((S)-tetrahydrofuran-3-yl)amino)but-2-en-1-one], with less than 100 nM; and `CN(C/C=C/C(=O)N1CC[C@@H](n2c(Cl)c(-c3ccc(Oc4ccccc4)cc3)c3c(N)ncnc32)C1)[C@@H]1CCOC1` [Compound 57, (E)-1-((R)-3-(4-amino-6-chloro-5-(4-phenoxyphenyl)-7H-pyrrolo[2,3-d]pyrimidin-7-yl)pyrrolidin-1-yl)-4-(methyl((R)-tetrahydrofuran-3-yl)amino)but-2-en-1-one], with less than 100 nM. `CN(C/C=C/C(=O)N1CC[C@@H](n2c(Cl)c(-c3ccc(Oc4cccc(F)c4)cc3)c3c(N)ncnc32)C1)C1CC1` [Compound 60, (R,E)-1-(3-(4-amino-6-chloro-5-(4-(3-fluorophenoxy)phenyl)-7H-pyrrolo[2,3-d]pyrimidin-7-yl)pyrrolidin-1-yl)-4-(cyclopropyl(methyl)amino)but-2-en-1-one]: the IC50 was less than 100 nM. As to `COCCN(C)C/C=C/C(=O)N1CC[C@@H](n2c(C)c(-c3ccc(Oc4ccccc4)cc3)c3c(N)ncnc32)C1` [Compound 61, (R,E)-1-(3-(4-amino-6-methyl-5-(4-phenoxyphenyl)-7H-pyrrolo[2,3-d]pyrimidin-7-yl)pyrrolidin-1-yl)-4-((2-methoxyethyl)(methyl)amino)but-2-en-1-one], the half-maximal inhibitory concentration (IC50) was less than 100 nM. For `Cc1c(-c2ccc(Oc3ccccc3)cc2)c2c(N)ncnc2n1C1CCN(C(=O)/C=C/CN(C)C2CC2)CC1` [Compound 67, (E)-1-(4-(4-amino-6-methyl-5-(4-phenoxyphenyl)-7H-pyrrolo[2,3-d]pyrimidin-7-yl)piperidin-1-yl)-4-(cyclopropyl(methyl)amino)but-2-en-1-one] the value was less than 100 nM; for `Cc1c(-c2ccc(Oc3ccccc3)cc2)c2c(N)ncnc2n1[C@@H]1CCCN(C(=O)/C=C/CN(C)C2CC2)C1` [Compound 72, (R,E)-1-(3-(4-amino-6-methyl-5-(4-phenoxyphenyl)-7H-pyrrolo[2,3-d]pyrimidin-7-yl)piperidin-1-yl)-4-(cyclopropyl(methyl)amino)but-2-en-1-one], less than 100 nM. Then `Cc1c(-c2ccc(Oc3cccc(F)c3)cc2)c2c(N)ncnc2n1[C@@H]1CCCN(C(=O)/C=C/CN(C)C2CC2)C1` [Compound 76, (R,E)-1-(3-(4-amino-5-(4-(3-fluorophenoxyl)phenyl)-6-methyl-7H-pyrrolo[2,3-d]pyrimidin-7-yl)piperidin-1-yl)-4-(cyclopropyl(methyl)amino)but-2-en-1-one], with less than 100 nM. Turning to `COCCN(C/C=C/C(=O)N1CC[C@@H](n2c(C)c(-c3ccc(Oc4ccccc4)cc3)c3c(N)ncnc32)C1)CCOC` [Compound 79, (R,E)-1-(3-(4-amino-6-methyl-5-(4-phenoxyphenyl)-7H-pyrrolo[2,3-d]pyrimidin-7-yl)pyrrolidin-1-yl)-4-(bis(2-methoxyethyl)amino)but-2-en-1-one], the IC50 was less than 100 nM. For `Cc1c(-c2ccc(OCc3cnn[nH]3)cc2)c2c(N)ncnc2n1[C@@H]1CCN(C(=O)/C=C/CN(C)C2CC2)C1` [Compound 86, (R,E)-1-(3-(5-(4-((1H-1,2,3-triazol-5-yl)methoxy)phenyl)-4-amino-6-methyl-7H-pyrrolo[2,3-d]pyrimidin-7-yl)pyrrolidin-1-yl)-4-(cyclopropyl(methyl)amino)but-2-en-1-one], the IC50 was less than 100 nM. For the compound `COc1c(-c2ccc(Oc3ccccc3)cc2)c2c(N)ncnc2n1[C@@H]1CCN(C(=O)/C=C/CN(C)C)C1` [Compound 88, (R,E)-1-(3-(4-amino-6-methoxy-5-(4-phenoxyphenyl)-7H-pyrrolo[2,3-d]pyrimidin-7-yl)pyrrolidin-1-yl)-4-(dimethylamino)but-2-en-1-one], the IC50 is less than 100 nM. Then `COc1c(-c2ccc(Oc3ccccc3)cc2)c2c(N)ncnc2n1[C@@H]1CCN(C(=O)/C=C/CN(C)C2CC2)C1` [Compound 89, (R,E)-1-(3-(4-amino-6-methoxy-5-(4-phenoxyphenyl)-7H-pyrrolo[2,3-d]pyrimidin-7-yl)pyrrolidin-1-yl)-4-(cyclopropyl(methyl)amino)but-2-en-1-one], with less than 100 nM; and `COc1c(-c2ccc(Oc3cccc(F)c3)cc2)c2c(N)ncnc2n1[C@@H]1CCN(C(=O)/C=C/CN(C)C2CC2)C1` [Compound 92, (R,E)-1-(3-(4-amino-5-(4-(3-fluorophenoxyl)phenyl)-6-methoxy-7H-pyrrolo[2,3-d]pyrimidin-7-yl)pyrrolidin-1-yl)-4-(cyclopropyl(methyl)amino)but-2-en-1-one], with less than 100 nM. Then `CN(C/C=C/C(=O)N1CC[C@@H](n2c(C3CC3)c(-c3ccc(Oc4ccccc4)cc3)c3c(N)ncnc32)C1)C1CC1` [Compound 94, (R,E)-1-(3-(4-amino-6-cyclopropyl-5-(4-phenoxyphenyl)-7H-pyrrolo[2,3-d]pyrimidin-7-yl)pyrrolidin-1-yl)-4-(cyclopropyl(methyl)amino)but-2-en-1-one], with less than 100 nM; and `CN(C/C=C/C(=O)N1CC[C@@H](n2c(C3CC3)c(-c3ccc(Oc4ccccc4)cc3)c3c(N)ncnc32)C1)[C@H]1CCOC1` [Compound 95, (E)-1-((R)-3-(4-amino-6-cyclopropyl-5-(4-phenoxyphenyl)-7H-pyrrolo[2,3-d]pyrimidin-7-yl)pyrrolidin-1-yl)-4-(methyl((S)-tetrahydrofuran-3-yl)amino)but-2-en-1-one], with less than 100 nM.

Source of the values: patent US9540385B2, “Pyrrolopyrimidine compounds as kinase inhibitors” (Pharmacyclics LLC, priority 2012, dated 2017).
